The assay concerns BDF1 mice, colon carcinoma 38 sc, T/C %. Briefly: NCI In Vivo Anticancer Drug Screen. Data for tumor model Colon Carcinoma 38 (subcutaneous) in B6D2F1 (BDF1) mice. In short, it runs like this: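 T/C readout: treated group (T) measurement over vehicle control group (C) measurement. Endpoint is survival or tumor size in mice bearing a transplanted tumor.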
[1] abbreviates: endpoint: median tumor weight (est.), dose: 100.0 mg/kg/injection, schedule: Q07DX002 (ip), vehicle: saline, higher = larger tumour.
Setting [2] is: endpoint: median tumor weight (est.), dose: 0.25 mg/kg/injection, schedule: Q07DX002 (ip), vehicle: saline, higher = larger tumour.
The mark [3] stands for this setting: endpoint: median tumor weight (est.), dose: 25.0 mg/kg/injection, schedule: Q07DX002 (ip), vehicle: saline with Tween-80, higher = larger tumour.
Setting [4] is: endpoint: median tumor weight (est.), dose: 200.0 mg/kg/injection, schedule: Q07DX002 (ip), vehicle: saline with Tween-80, higher = larger tumour.
Setting [5] is: endpoint: median tumor weight (est.), dose: 400.0 mg/kg/injection, schedule: Q07DX002 (ip), vehicle: saline with Tween-80, higher = larger tumour.
[6] abbreviates: endpoint: median tumor weight (est.), dose: 100.0 mg/kg/injection, schedule: Q07DX002 (ip), vehicle: saline with Tween-80, higher = larger tumour.

SMILES strings stand for the structures. Values joined by “and” are separate entries in the source; they are usually repeats but may differ in a detail not shown here. Identical values can stand only once. Results filed as inconclusive are left out.

Take `Cc1cc(SCC(=O)c2ccc(Br)cc2)cc(C)[o+]1`: the T/C was 122 % of control (endpoint: median tumor weight (est.), dose: 12.5 mg/kg/injection, schedule: Q07DX002 (ip), vehicle: saline, higher = larger tumour); 77 % of control and 101 % of control (endpoint: median tumor weight (est.), dose: 25.0 mg/kg/injection, schedule: Q07DX002 (ip), vehicle: saline, higher = larger tumour); 111 % of control and 107 % of control (endpoint: median tumor weight (est.), dose: 50.0 mg/kg/injection, schedule: Q07DX002 (ip), vehicle: saline, higher = larger tumour); 98 % of control and 100 % of control under setting [1]; 100 % of control (endpoint: median tumor weight (est.), dose: 200.0 mg/kg/injection, schedule: Q07DX002 (ip), vehicle: saline, higher = larger tumour).

As for `CC(=O)OCC12CCC(C)=CC1OC1C(=O)CC2(C)C12CO2` (stereo unspecified), the T/C was 111 % of control under setting [2]; 155 % of control (endpoint: median tumor weight (est.), dose: 10.0 mg/kg/injection, schedule: Q07DX002 (ip), vehicle: saline, higher = larger tumour); 119 % of control (endpoint: median tumor weight (est.), dose: 20.0 mg/kg/injection, schedule: Q07DX002 (ip), vehicle: saline, higher = larger tumour).

Turning to `OCCOCC(F)(F)F`, the T/C is 86 % of control under setting [3]; 120 % of control and 104 % of control under setting [4]; 116 % of control and 102 % of control under setting [5].

On to `COc1cc(C(=O)c2cc3c(cc2C)OCO3)cc(OC)c1OC`, for which the T/C was 77 % of control (endpoint: median tumor weight (est.), dose: 12.5 mg/kg/injection, schedule: Q07DX002 (ip), vehicle: Klucel (hydroxypropylcellulose) (HPC), higher = larger tumour); 75 % of control and 84 % of control (endpoint: median tumor weight (est.), dose: 25.0 mg/kg/injection, schedule: Q07DX002 (ip), vehicle: Klucel (hydroxypropylcellulose) (HPC), higher = larger tumour); 112 % of control and 95 % of control (endpoint: median tumor weight (est.), dose: 50.0 mg/kg/injection, schedule: Q07DX002 (ip), vehicle: Klucel (hydroxypropylcellulose) (HPC), higher = larger tumour); 79 % of control and 102 % of control (endpoint: median tumor weight (est.), dose: 200.0 mg/kg/injection, schedule: Q07DX002 (ip), vehicle: Klucel (hydroxypropylcellulose) (HPC), higher = larger tumour).

For `Nc1nc(N)c2c(Cl)c(CNc3ccc(Cl)c(Cl)c3)ccc2n1`, the T/C is 73 % of control and 82 % of control and 88 % of control (endpoint: median tumor weight (est.), dose: 12.5 mg/kg/injection, schedule: Q07DX002 (ip), vehicle: saline with Tween-80, higher = larger tumour); 5 % of control and 19 % of control under setting [6].

Turning to `CC1=C2CC(C)(C)/C=C\C(=O)/C(C)=C\C3=C[C@H](C)C[C@]3(O2)C1=O`, the T/C (endpoint: median tumor weight (est.), dose: 1.5 mg/kg/injection, schedule: Q07DX002 (ip), vehicle: Klucel (hydroxypropylcellulose) (HPC), higher = larger tumour) was 80 % of control; the T/C (endpoint: median tumor weight (est.), dose: 3.0 mg/kg/injection, schedule: Q07DX002 (ip), vehicle: Klucel (hydroxypropylcellulose) (HPC), higher = larger tumour) is 100 % of control; the T/C (endpoint: median tumor weight (est.), dose: 6.0 mg/kg/injection, schedule: Q07DX002 (ip), vehicle: Klucel (hydroxypropylcellulose) (HPC), higher = larger tumour) was 157 % of control.

Regarding `CC(=O)OCC1(C)NC(=O)c2ccccc2O1` (stereo unspecified), the T/C by setting is: (endpoint: median tumor weight (est.), dose: 56.2 mg/kg/injection, schedule: Q07DX002 (ip), vehicle: saline with Tween-80, higher = larger tumour) 54 % of control; under setting [6], 98 % of control; (endpoint: median tumor weight (est.), dose: 112.5 mg/kg/injection, schedule: Q07DX002 (ip), vehicle: saline with Tween-80, higher = larger tumour) 62 % of control; under setting [4], 109 % of control; (endpoint: median tumor weight (est.), dose: 225.0 mg/kg/injection, schedule: Q07DX002 (ip), vehicle: saline with Tween-80, higher = larger tumour) 69 % of control; under setting [5], 153 % of control. The T/C is 48 % of control (endpoint: median tumor weight (est.), dose: 450.0 mg/kg/injection, schedule: Q07DX002 (ip), vehicle: saline with Tween-80, higher = larger tumour) and 48 % of control (endpoint: median tumor weight (est.), dose: 900.0 mg/kg/injection, schedule: Q07DX002 (ip), vehicle: saline with Tween-80, higher = larger tumour).

Regarding `NC(Cc1ccc(N(CCCl)CCCl)cc1)C(=O)O` (stereo unspecified), the T/C was 71 % of control (endpoint: median tumor weight (est.), dose: 1.0 mg/kg/injection, schedule: Q07DX002 (ip), vehicle: Klucel (hydroxypropylcellulose) (HPC), higher = larger tumour); 84 % of control (endpoint: median tumor weight (est.), dose: 1.0 mg/kg/injection, schedule: Q07DX002 (ip), vehicle: water, higher = larger tumour); 97 % of control (endpoint: median tumor weight (est.), dose: 2.0 mg/kg/injection, schedule: Q07DX002 (ip), vehicle: water, higher = larger tumour); 59 % of control (endpoint: median tumor weight (est.), dose: 4.0 mg/kg/injection, schedule: Q07DX002 (ip), vehicle: water, higher = larger tumour); 47 % of control and 51 % of control and 53 % of control (endpoint: median tumor weight (est.), dose: 8.0 mg/kg/injection, schedule: Q07DX002 (ip), vehicle: Klucel (hydroxypropylcellulose) (HPC), higher = larger tumour); 37 % of control (endpoint: median tumor weight (est.), dose: 8.0 mg/kg/injection, schedule: Q07DX002 (ip), vehicle: water, higher = larger tumour). The T/C (endpoint: median tumor weight (est.), dose: 16.0 mg/kg/injection, schedule: Q07DX002 (ip), vehicle: Klucel (hydroxypropylcellulose) (HPC), higher = larger tumour) was 9 % of control and 14 % of control.

For `C=CC(C)NC(=S)NNC(=S)NC` (stereo unspecified), the T/C by setting is: (endpoint: median tumor weight (est.), dose: 50.0 mg/kg/injection, schedule: Q07DX002 (ip), vehicle: saline + alcohol, higher = larger tumour) 97 % of control; (endpoint: median tumor weight (est.), dose: 100.0 mg/kg/injection, schedule: Q07DX002 (ip), vehicle: saline + alcohol, higher = larger tumour) 112 % of control; (endpoint: median tumor weight (est.), dose: 200.0 mg/kg/injection, schedule: Q07DX002 (ip), vehicle: saline + alcohol, higher = larger tumour) 104 % of control; (endpoint: median tumor weight (est.), dose: 400.0 mg/kg/injection, schedule: Q07DX002 (ip), vehicle: saline + alcohol, higher = larger tumour) 86 % of control.

Consider `CC(=O)O[C@H]1C(=O)[C@@]2(C)[C@H]([C@H](OC(=O)c3ccccc3)[C@]3(O)C[C@H](OC(=O)[C@H](O)[C@@H](NC(=O)c4ccccc4)c4ccccc4)C(C)=C1C3(C)C)[C@]1(OC(C)=O)CO[C@@H]1C[C@@H]2O`, for which the T/C is 69 % of control (endpoint: median tumor weight (est.), dose: 7.5 mg/kg/injection, schedule: Q07DX002 (ip), vehicle: Klucel (hydroxypropylcellulose) (HPC), higher = larger tumour); 88 % of control (endpoint: median tumor weight (est.), dose: 30.0 mg/kg/injection, schedule: Q07DX002 (ip), vehicle: Klucel (hydroxypropylcellulose) (HPC), higher = larger tumour); 106 % of control (endpoint: median tumor weight (est.), dose: 60.0 mg/kg/injection, schedule: Q07DX002 (ip), vehicle: Klucel (hydroxypropylcellulose) (HPC), higher = larger tumour).

As for `COC1CC(NC(=O)N(CCCl)N=O)C(O)C(CO)O1` (stereo unspecified), the T/C (endpoint: median tumor weight change, dose: 10.0 mg/kg/injection, schedule: Q04DX003 (oral), vehicle: saline, higher = larger tumour) is 5 % of control.

As for `Nc1ncnc2c1ncn2C1OC(COS(N)(=O)=O)C(O)C1O` (stereo unspecified), the T/C (endpoint: median survival time, dose: 0.25 mg/kg/injection, schedule: Q02DX004 (sc), vehicle: saline, higher = longer survival) was 100 % of control and the T/C (endpoint: median survival time, dose: 0.5 mg/kg/injection, schedule: Q02DX004 (sc), vehicle: saline, higher = longer survival) was 100 % of control.

Consider `Nc1ccn(C2OC(CO)C(O)C2O)c(=O)n1` (stereo unspecified), for which the T/C reads like this: under setting [1], 69 % of control; (endpoint: median tumor weight (est.), dose: 150.0 mg/kg/injection, schedule: Q07DX002 (ip), vehicle: saline, higher = larger tumour) 74 % of control; (endpoint: median tumor weight (est.), dose: 400.0 mg/kg/injection, schedule: Q07DX002 (ip), vehicle: saline, higher = larger tumour) 75 % of control and 95 % of control; (endpoint: median tumor weight (est.), dose: 600.0 mg/kg/injection, schedule: Q07DX002 (ip), vehicle: saline, higher = larger tumour) 29 % of control and 43 % of control; (endpoint: median tumor weight (est.), dose: 800.0 mg/kg/injection, schedule: Q07DX002 (ip), vehicle: saline, higher = larger tumour) 35 % of control; (endpoint: median tumor weight (est.), dose: 1200.0 mg/kg/injection, schedule: Q07DX002 (ip), vehicle: saline, higher = larger tumour) 44 % of control and 55 % of control.

Turning to `O=C1C(NCCO)=C(N2CC2)C(=O)C(NCCO)=C1N1CC1`, the T/C by setting is: (endpoint: median tumor weight (est.), dose: 0.12 mg/kg/injection, schedule: Q07DX002 (ip), vehicle: saline, higher = larger tumour) 83 % of control and 91 % of control; under setting [2], 92 % of control.

As to `Cn1c2nc(=O)n(-c3ccccc3)c(=O)c-2nc2c1CCCC2`, the T/C reads like this: under setting [3], 72 % of control; under setting [6], 70 % of control and 74 % of control; under setting [4], 90 % of control.

In the case of `COc1ccc(C(N)=O)cc1N=NN(C)C`, the T/C by setting is: (endpoint: median tumor weight (est.), dose: 6.25 mg/kg/injection, schedule: Q07DX003 (ip), vehicle: Klucel (hydroxypropylcellulose) (HPC), higher = larger tumour) 97 % of control; (endpoint: median tumor weight (est.), dose: 12.5 mg/kg/injection, schedule: Q07DX003 (ip), vehicle: Klucel (hydroxypropylcellulose) (HPC), higher = larger tumour) 111 % of control; (endpoint: median tumor weight (est.), dose: 25.0 mg/kg/injection, schedule: Q07DX003 (ip), vehicle: Klucel (hydroxypropylcellulose) (HPC), higher = larger tumour) 89 % of control; (endpoint: median tumor weight (est.), dose: 50.0 mg/kg/injection, schedule: Q07DX003 (ip), vehicle: Klucel (hydroxypropylcellulose) (HPC), higher = larger tumour) 66 % of control; (endpoint: median tumor weight (est.), dose: 100.0 mg/kg/injection, schedule: Q07DX003 (ip), vehicle: Klucel (hydroxypropylcellulose) (HPC), higher = larger tumour) 15 % of control.

For the origin of these results see PubChem BioAssay AID212 (DTP/NCI, 2004).
